#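 Each compound was tested at five concentrations against cells in 96-well plates for 48 hours. Abbreviation: GI50, concentration required for 50% inhibition of growth. TGI: total growth inhibition.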
# System: OVCAR-3 ovarian
# Experiment: NCI-60 cell line screen, 48 h
SMILES,TGI [µM],GI50 [µM]
Cc1nc(N)sc1C(=O)/C=C\c1ccc2c(c1)OCO2,> 100,–
COc1cc(C(C)O)c[n+](CCc2c[nH]c3ccccc23)c1 (stereo not drawn),> 100,–
CN1CCN(CCCOc2ccc3nc(Nc4ccc(Cl)c(C(F)(F)F)c4)ccc3c2)CC1,25.8,12.5
CC1(C)SCc2nc3ncccc3n21,> 100,–
Cn1c(=O)c(C(c2ccc([N+](=O)[O-])cc2)c2c(O)c3ccccc3n(C)c2=O)cc2ccccc21 (stereo not drawn),> 100,–
Cc1cn(C2CC(O)C(CO)O2)c(=O)n2nnnc12 (stereo not drawn),> 100,–
COc1ccc(C(=O)C(C(=O)CCC(=O)Nc2cccc(Cl)c2)c2ccc(OC)cc2)cc1 (stereo not drawn),> 100,–
CCOC(=O)C1=C(C)N(NC(=O)Nc2ccccc2)C(=O)C1=P(c1ccccc1)(c1ccccc1)c1ccccc1,> 100,–
COc1cc(C=C2C(=O)NC(=O)NC2=O)cc(OC)c1OC,> 100,–
Nn1c(=O)n(Cc2ccccc2)n(-c2ccccc2)c1=O,> 100,–
OC[C@H]1CCCC1O (stereo partly drawn),> 100,–
Cc1cc(C(=O)Nc2ncc(Cc3cccc(C(F)(F)F)c3)s2)c2ccccc2n1,> 100,2.63
Cc1ccc(C2=C(c3ccccc3)C(Br)(c3ccc(C)cc3)C(c3ccccc3)=C2c2ccc(C)cc2)cc1,> 100,–
N#CCN1C(=O)c2cccc3cc([N+](=O)[O-])cc(c23)C1=O,88.6,–
O=C1CCN2C(=O)CCN12,> 100,–
C=C1C(=O)O[C@H]2[C@H]1CC/C(COC(=O)C(=O)c1cn(Cc3ccccc3)c3ccccc13)=C\CC[C@@]1(C)O[C@@H]21,5.65,2.18
Clc1nc(Cl)c(Cl)c(-c2ccccc2)n1,5.38,–
CC1CC[C@]2(C(=O)O)CCC3(C)C(=CC(=O)C4[C@@]5(C)CCC(=O)C(C)(C)C5CC[C@]43C)[C@@H]2[C@H]1C (stereo partly drawn),44,–
COC(C(O)CO)C(O)C(O)C(=O)NNc1ccccc1 (stereo not drawn),> 100,–
CC(C)C(Nc1c2ccccc2nc2ccccc12)C(=O)O (stereo not drawn),> 100,–
COc1ccccc1CCc1cc(OC)c(OC)c(OC)c1,> 100,–
COc1cc2c(cc1OC)C(CC(=O)NN=C(C)C)NCC2 (stereo not drawn),> 100,–

SMILES,TGI [µM],GI50 [µM]
COC(=O)/C(=N\Nc1nnc(C)n1N)C(C#N)c1ccc(Cl)cc1 (stereo not drawn),> 100,–
Cc1cccc(NC(=O)C(=O)C(C(=O)c2ccc3ccccc3c2)C2OC(=O)c3ccccc32)c1C (stereo not drawn),50.1,–
CS/C(N)=N\NC(=O)CCC(=O)Nc1ccccc1C(F)(F)F,> 100,–
CC(C)(C)c1ccc2c(c1)S(=O)(=O)Nc1ccccc1NS(=O)(=O)c1cc(C(C)(C)C)ccc1OCCOCCOCCO2,> 100,–
CC(=O)[O-].CCN(CC)c1ccc(C=NCCN=Cc2ccc(N(CC)CC)cc2[O-])c([O-])c1.[Mn+3],44.1,21
NC(N)=N/N=C(\c1nc2ccc([N+](=O)[O-])cc2[nH]c1=O)C(O)c1ccc([N+](=O)[O-])cc1 (stereo not drawn),> 100,–
COc1cc2nc3cc([N+](=O)[O-])ccc3c(NCCCNCCO)c2cc1OC,0.622,0.244
CCC[CH2][Sn]1([CH2]CCC)[O]CC(CN2CCCC2)[O]1 (stereo not drawn),25.7,13
CC1(C)C(=O)N(CCCCCCN2C(=O)C(C)(C)c3ccccc32)c2ccccc21,77.8,–
NCCCCN(CCCN)/[N+]([O-])=N\O,> 100,–
CCOC(=O)c1c(C)n(Cc2ccc(Cl)cc2Cl)c2c1c(CN(C)C)c(O)c1[nH]cnc12,33.5,17.3
CCOc1ccccc1NC(=O)CC(C(=O)OC)C(=O)C(=O)OC (stereo not drawn),> 100,–
C[C@@]12CC=C3c4nc(Nc5cccc(O)c5)sc4CC[C@]3(C)[C@H]1CC[C@]1(C)C(=O)CC[C@@H]21,3.1,1.66
CN1C(=O)c2cccc3cc([N+](=O)[O-])cc(c23)C1=O,> 10,–
COC(=O)C1=C(C)N(NC(=O)OC(C)(C)C)C(=O)C1=P(c1ccccc1)(c1ccccc1)c1ccccc1,> 100,–
O=C1OC(c2ccccc2)=N/C1=C\c1cccc2ccccc12,> 100,–
Cc1cccc(NC(=O)/C(=N\NC(C)(C)C)C2NC(=S)NC2=O)c1C (stereo not drawn),> 100,–
C[C@@H]1CC(=O)C2CCCC1C2=O (stereo partly drawn),> 100,–
c1ccc(CNn2nnc3ccccc32)cc1,> 100,–
CN1c2ccc(Cl)cc2C(=O)NC1c1ccc([N+](=O)[O-])s1 (stereo not drawn),31.4,–
Oc1cccnc1CN1CCCCC1,> 100,–

# System: PC-3 prostate
# Experiment: NCI-60 cell line screen, 48 h
SMILES,GI50 [µM],TGI [µM]
CN1CCN(CCCOc2ccc3nc(Nc4ccc(Cl)c(C(F)(F)F)c4)ccc3c2)CC1,13.3,27.1
OC[C@H]1CCCC1O (stereo partly drawn),–,> 100
Cc1cc(C(=O)Nc2ncc(Cc3cccc(C(F)(F)F)c3)s2)c2ccccc2n1,2.31,> 100
O=C1OC(C(O)CO)C(=O)C1=O (stereo not drawn),4410,> 10000
C=C1C(=O)O[C@H]2[C@H]1CC/C(COC(=O)C(=O)c1cn(Cc3ccccc3)c3ccccc13)=C\CC[C@@]1(C)O[C@@H]21,2.14,4.35
Clc1nc(Cl)c(Cl)c(-c2ccccc2)n1,–,39.3
COC(C(O)CO)C(O)C(O)C(=O)NNc1ccccc1 (stereo not drawn),–,> 100
COc1cc2nc3cc([N+](=O)[O-])ccc3c(NCCCNCCO)c2cc1OC,0.213,0.483
C[C@@]12CC=C3c4nc(Nc5cccc(O)c5)sc4CC[C@]3(C)[C@H]1CC[C@]1(C)C(=O)CC[C@@H]21,1.41,7.02
CN1C(=O)c2cccc3cc([N+](=O)[O-])cc(c23)C1=O,–,> 10
CN1c2ccc(Cl)cc2C(=O)NC1c1ccc([N+](=O)[O-])s1 (stereo not drawn),–,36.1
Oc1cccnc1CN1CCCCC1,–,> 100

# System: LOX IMVI melanoma
# Experiment: NCI-60 cell line screen, 48 h
SMILES,TGI [µM],GI50 [µM]
Cc1nc(N)sc1C(=O)/C=C\c1ccc2c(c1)OCO2,> 100,–
COc1cc(C(C)O)c[n+](CCc2c[nH]c3ccccc23)c1 (stereo not drawn),> 100,–
CN1CCN(CCCOc2ccc3nc(Nc4ccc(Cl)c(C(F)(F)F)c4)ccc3c2)CC1,15.9,4.07
CC1(C)SCc2nc3ncccc3n21,> 100,–
Cn1c(=O)c(C(c2ccc([N+](=O)[O-])cc2)c2c(O)c3ccccc3n(C)c2=O)cc2ccccc21 (stereo not drawn),> 100,–
Cc1cn(C2CC(O)C(CO)O2)c(=O)n2nnnc12 (stereo not drawn),> 100,–
CCOC(=O)C1=C(C)N(NC(=O)Nc2ccccc2)C(=O)C1=P(c1ccccc1)(c1ccccc1)c1ccccc1,> 100,–
COc1cc(C=C2C(=O)NC(=O)NC2=O)cc(OC)c1OC,> 100,–
Nn1c(=O)n(Cc2ccccc2)n(-c2ccccc2)c1=O,> 100,–
Cc1ccc(C2=C(c3ccccc3)C(Br)(c3ccc(C)cc3)C(c3ccccc3)=C2c2ccc(C)cc2)cc1,> 100,–
N#CCN1C(=O)c2cccc3cc([N+](=O)[O-])cc(c23)C1=O,66.8,–
O=C1OC(C(O)CO)C(=O)C1=O (stereo not drawn),4990,1950
C=C1C(=O)O[C@H]2[C@H]1CC/C(COC(=O)C(=O)c1cn(Cc3ccccc3)c3ccccc13)=C\CC[C@@]1(C)O[C@@H]21,2.57,1.21
Clc1nc(Cl)c(Cl)c(-c2ccccc2)n1,5.59,–
CC1CC[C@]2(C(=O)O)CCC3(C)C(=CC(=O)C4[C@@]5(C)CCC(=O)C(C)(C)C5CC[C@]43C)[C@@H]2[C@H]1C (stereo partly drawn),42.8,–
COC(C(O)CO)C(O)C(O)C(=O)NNc1ccccc1 (stereo not drawn),> 100,–
CC(C)C(Nc1c2ccccc2nc2ccccc12)C(=O)O (stereo not drawn),> 100,–
COc1ccccc1CCc1cc(OC)c(OC)c(OC)c1,> 100,–
COc1cc2c(cc1OC)C(CC(=O)NN=C(C)C)NCC2 (stereo not drawn),> 100,–
COC(=O)/C(=N\Nc1nnc(C)n1N)C(C#N)c1ccc(Cl)cc1 (stereo not drawn),> 100,–
Cc1cccc(NC(=O)C(=O)C(C(=O)c2ccc3ccccc3c2)C2OC(=O)c3ccccc32)c1C (stereo not drawn),30.4,–
CS/C(N)=N\NC(=O)CCC(=O)Nc1ccccc1C(F)(F)F,> 100,–
CC(C)(C)c1ccc2c(c1)S(=O)(=O)Nc1ccccc1NS(=O)(=O)c1cc(C(C)(C)C)ccc1OCCOCCOCCO2,> 100,–
CC(=O)[O-].CCN(CC)c1ccc(C=NCCN=Cc2ccc(N(CC)CC)cc2[O-])c([O-])c1.[Mn+3],37.6,20.3
NC(N)=N/N=C(\c1nc2ccc([N+](=O)[O-])cc2[nH]c1=O)C(O)c1ccc([N+](=O)[O-])cc1 (stereo not drawn),> 100,–
COc1cc2nc3cc([N+](=O)[O-])ccc3c(NCCCNCCO)c2cc1OC,0.664,0.243
CCC[CH2][Sn]1([CH2]CCC)[O]CC(CN2CCCC2)[O]1 (stereo not drawn),26.8,12.3
CC1(C)C(=O)N(CCCCCCN2C(=O)C(C)(C)c3ccccc32)c2ccccc21,43.5,–

# From PubChem BioAssay (NCI)
